Assay results: the supplement of paper PMC10307832

Columns and labels:
Experiment in all cases: relative viability (nuclei count vs DMSO), 5 days (fraction); higher = more cells survive
BEN = system: BEN
Procedure, shortened: (§1)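 One day after seeding in 1536-well plates, lung cancer cell lines were dosed by pin tool. Dosing was either single-drug or a fixed anchor-drug dose plus five library-drug doses (not always all listed) in √10 steps. After 5 days, nuclei were stained in one fix-and-stain step and counted on 4× images, and relative viability is the nuclei count of treated wells over that of vehicle wells, given as the median of duplicate plates.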

EMC-BAC-2 = system: EMC-BAC-2
Procedure, shortened: as §1

H3255 = system: H3255
Procedure, shortened: as §1

HOP-62 = system: HOP-62
Procedure, shortened: as §1

LCLC-97TM1 = system: LCLC-97TM1
Procedure, shortened: as §1

LXF-289 = system: LXF-289
Procedure, shortened: as §1

NCI-H1563 = system: NCI-H1563
Procedure, shortened: as §1

NCI-H1650 = system: NCI-H1650
Procedure, shortened: as §1

NCI-H1915 = system: NCI-H1915
Procedure, shortened: as §1

NCI-H1993 = system: NCI-H1993
Procedure, shortened: as §1

NCI-H2009 = system: NCI-H2009
Procedure, shortened: as §1

NCI-H2023 = system: NCI-H2023
Procedure, shortened: as §1

NCI-H2085 = system: NCI-H2085
Procedure, shortened: as §1

NCI-H2126 = system: NCI-H2126
Procedure, shortened: as §1

NCI-H2347 = system: NCI-H2347
Procedure, shortened: as §1

NCI-H322M = system: NCI-H322M
Procedure, shortened: as §1

NCI-H647 = system: NCI-H647
Procedure, shortened: as §1

NCI-H661 = system: NCI-H661
Procedure, shortened: as §1

NCI-H727 = system: NCI-H727
Procedure, shortened: as §1

PC-14 = system: PC-14
Procedure, shortened: as §1

SK-LU-1 = system: SK-LU-1
Procedure, shortened: as §1

SW 1573 = system: SW 1573
Procedure, shortened: as §1

Clc1ccc(Nc2nnc(Cc3ccncc3)c3ccccc23)cc1 [Vatalanib] + CC(C)C[C@H](NC(=O)[C@H](Cc1ccccc1)NC(=O)c1cnccn1)B(O)O [Bortezomib] (partner 0.002 µM)
relative viability (BEN; first compound 0.04 µM): 0.851
relative viability (BEN; first compound 0.1265 µM): 0.682
relative viability (BEN; first compound 0.4 µM): 0.906
relative viability (BEN; first compound 1.265 µM): 0.665
relative viability (BEN; first compound 4 µM): 0.806
relative viability (EMC-BAC-2; first compound 0.04 µM): 1.04
relative viability (EMC-BAC-2; first compound 0.1265 µM): 1.09
relative viability (EMC-BAC-2; first compound 0.4 µM): 1.12
relative viability (EMC-BAC-2; first compound 1.265 µM): 1.01
relative viability (EMC-BAC-2; first compound 4 µM): 1.05
relative viability (H3255; first compound 0.04 µM): 0.627
relative viability (H3255; first compound 0.1265 µM): 0.764
relative viability (H3255; first compound 0.4 µM): 0.494
relative viability (H3255; first compound 1.265 µM): 0.47
relative viability (H3255; first compound 4 µM): 0.713
relative viability (HOP-62; first compound 0.04 µM): 0.977
relative viability (HOP-62; first compound 0.4 µM): 0.857
relative viability (HOP-62; first compound 1.265 µM): 0.849
relative viability (HOP-62; first compound 4 µM): 1.09
relative viability (LCLC-97TM1; first compound 0.04 µM): 0.529
relative viability (LCLC-97TM1; first compound 0.1265 µM): 0.523
relative viability (LCLC-97TM1; first compound 0.4 µM): 0.528
relative viability (LCLC-97TM1; first compound 1.265 µM): 0.31
relative viability (LCLC-97TM1; first compound 4 µM): 0.769
relative viability (LXF-289; first compound 0.04 µM): 1.07
relative viability (LXF-289; first compound 0.1265 µM): 0.976
relative viability (LXF-289; first compound 0.4 µM): 0.991
relative viability (LXF-289; first compound 1.265 µM): 0.931
relative viability (LXF-289; first compound 4 µM): 0.964
relative viability (NCI-H1563; first compound 0.04 µM): 0.868
relative viability (NCI-H1563; first compound 0.1265 µM): 0.855
relative viability (NCI-H1563; first compound 0.4 µM): 1.09
relative viability (NCI-H1563; first compound 1.265 µM): 0.814
relative viability (NCI-H1563; first compound 4 µM): 0.732
relative viability (NCI-H1650; first compound 0.04 µM): 0.196
relative viability (NCI-H1650; first compound 0.1265 µM): 0.217
relative viability (NCI-H1650; first compound 0.4 µM): 0.206
relative viability (NCI-H1650; first compound 1.265 µM): 0.174
relative viability (NCI-H1650; first compound 4 µM): 0.195
relative viability (NCI-H1915; first compound 0.04 µM): 0.949
relative viability (NCI-H1915; first compound 0.1265 µM): 0.923
relative viability (NCI-H1915; first compound 0.4 µM): 0.993
relative viability (NCI-H1915; first compound 1.265 µM): 0.936
relative viability (NCI-H1915; first compound 4 µM): 0.987
relative viability (NCI-H1993; first compound 0.04 µM): 1.11
relative viability (NCI-H1993; first compound 0.1265 µM): 1.05
relative viability (NCI-H1993; first compound 0.4 µM): 1.02
relative viability (NCI-H1993; first compound 1.265 µM): 1.01
relative viability (NCI-H1993; first compound 4 µM): 0.869
relative viability (NCI-H2009; first compound 0.04 µM): 1.19
relative viability (NCI-H2009; first compound 0.1265 µM): 0.891
relative viability (NCI-H2009; first compound 0.4 µM): 1.14
relative viability (NCI-H2009; first compound 1.265 µM): 0.949
relative viability (NCI-H2009; first compound 4 µM): 0.984
relative viability (NCI-H2023; first compound 0.04 µM): 1.02
relative viability (NCI-H2023; first compound 0.1265 µM): 0.837
relative viability (NCI-H2023; first compound 0.4 µM): 1.02
relative viability (NCI-H2023; first compound 1.265 µM): 0.946
relative viability (NCI-H2023; first compound 4 µM): 0.695
relative viability (NCI-H2085; first compound 0.04 µM): 1.07
relative viability (NCI-H2085; first compound 0.1265 µM): 0.952
relative viability (NCI-H2085; first compound 0.4 µM): 1.08
relative viability (NCI-H2085; first compound 1.265 µM): 0.995
relative viability (NCI-H2085; first compound 4 µM): 0.947
relative viability (NCI-H2126; first compound 0.04 µM): 1.06
relative viability (NCI-H2126; first compound 0.1265 µM): 1.14
relative viability (NCI-H2126; first compound 0.4 µM): 1.17
relative viability (NCI-H2126; first compound 1.265 µM): 1.1
relative viability (NCI-H2126; first compound 4 µM): 1.13
relative viability (NCI-H2347; first compound 0.1265 µM): 0.898
relative viability (NCI-H2347; first compound 0.4 µM): 0.855
relative viability (NCI-H2347; first compound 1.265 µM): 0.973
relative viability (NCI-H2347; first compound 4 µM): 0.865
relative viability (NCI-H322M; first compound 0.04 µM): 1.19
relative viability (NCI-H322M; first compound 0.1265 µM): 1.31
relative viability (NCI-H322M; first compound 0.4 µM): 1.33
relative viability (NCI-H322M; first compound 1.265 µM): 1.28
relative viability (NCI-H322M; first compound 4 µM): 1.08
relative viability (NCI-H647; first compound 0.04 µM): 1.05
relative viability (NCI-H647; first compound 0.1265 µM): 0.971
relative viability (NCI-H647; first compound 0.4 µM): 1.07
relative viability (NCI-H647; first compound 1.265 µM): 0.943
relative viability (NCI-H647; first compound 4 µM): 1.06
relative viability (NCI-H661; first compound 0.04 µM): 0.801
relative viability (NCI-H661; first compound 0.1265 µM): 0.71
relative viability (NCI-H661; first compound 0.4 µM): 0.882
relative viability (NCI-H661; first compound 1.265 µM): 0.764
relative viability (NCI-H661; first compound 4 µM): 0.816
relative viability (NCI-H727; first compound 0.04 µM): 0.908
relative viability (NCI-H727; first compound 0.1265 µM): 0.776
relative viability (NCI-H727; first compound 0.4 µM): 0.827
relative viability (NCI-H727; first compound 1.265 µM): 0.854
relative viability (NCI-H727; first compound 4 µM): 0.706
relative viability (PC-14; first compound 0.04 µM): 1.02
relative viability (PC-14; first compound 0.1265 µM): 0.849
relative viability (PC-14; first compound 0.4 µM): 0.969
relative viability (PC-14; first compound 1.265 µM): 0.852
relative viability (PC-14; first compound 4 µM): 0.828
relative viability (SK-LU-1; first compound 0.04 µM): 1.25
relative viability (SK-LU-1; first compound 0.1265 µM): 0.981
relative viability (SK-LU-1; first compound 1.265 µM): 1.19
relative viability (SK-LU-1; first compound 4 µM): 1.14
relative viability (SW 1573; first compound 0.04 µM): 1.15
relative viability (SW 1573; first compound 0.1265 µM): 0.96
relative viability (SW 1573; first compound 0.4 µM): 1.21
relative viability (SW 1573; first compound 1.265 µM): 0.972
relative viability (SW 1573; first compound 4 µM): 1.09
